PubChem BioAssay (NCI)
“And” between values parts separate entries of the source, which are not always exact repeats. Equal entries are not always repeated.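 Growth conditions: 96-well plates. Treatment: test compound, 48 hours, 5 concentrations. Analysis: linear interpolation between bracketing concentrations; unreached endpoints set to highest concentration. Here, GI50 denotes the concentration required for 50% inhibition of growth. The concentration for full growth arrest is given as TGI.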 *1 amine or outer side, *2 acyl side, *3 side chain or, on linkers, in order; H or OH if unused. Where a SMILES comes first, the peptide text is derived from it. Bridges are numbered along the chain shown (N, C = ends). [ ]: non-standard residue; d: D form. ξ: configuration not given here. X4 = CCC(C)C(N[*:1])C(O)CC(=O)O[C@H](C(=O)C(C)C(=O)[*:2])C(C)C; NMeY = CN[C@@H](Cc1ccc(O)cc1)C(=O)O; X9 = O=C([C@@H]1CC(O)CN1[*:1])[*:2]; ξNMeL = CNC(CC(C)C)C(=O)O; ξT = CC(O)C(N)C(=O)O

Key:
Experiment in all cases: NCI anticancer screen, dose series, 48 h
A498 renal = test system: A498 renal
DU-145 prostate = test system: DU-145 prostate
SK-MEL-5 melanoma = test system: SK-MEL-5 melanoma
UACC-62 melanoma = test system: UACC-62 melanoma
SW-620 colon = test system: SW-620 colon
NCI/ADR-RES ovarian = test system: NCI/ADR-RES ovarian
OVCAR-4 ovarian = test system: OVCAR-4 ovarian
IGROV1 ovarian = test system: IGROV1 ovarian
UACC-257 melanoma = test system: UACC-257 melanoma
SK-OV-3 ovarian = test system: SK-OV-3 ovarian

| SMILES | GI50 (A498 renal) [µM] | TGI (A498 renal) | GI50 (DU-145 prostate) [µM] | TGI (DU-145 prostate) | GI50 (SK-MEL-5 melanoma) [µM] | TGI (SK-MEL-5 melanoma) | GI50 (UACC-62 melanoma) [µM] | TGI (UACC-62 melanoma) | GI50 (SW-620 colon) [µM] | TGI (SW-620 colon) | GI50 (NCI/ADR-RES ovarian) [µM] | TGI (NCI/ADR-RES ovarian) [µM] | GI50 (OVCAR-4 ovarian) [µM] | TGI (OVCAR-4 ovarian) | GI50 (IGROV1 ovarian) [µM] | TGI (IGROV1 ovarian) | GI50 (UACC-257 melanoma) [µM] | TGI (UACC-257 melanoma) | GI50 (SK-OV-3 ovarian) [µM] | TGI (SK-OV-3 ovarian) |
| --- | --- | --- | --- | --- | --- | --- | --- | --- | --- | --- | --- | --- | --- | --- | --- | --- | --- | --- | --- | --- |
| O=[N+]([O-])c1cccc(-c2nc3sccn3c2-c2ccnc(NCCCNS(=O)(=O)c3ccc(F)cc3)n2)c1 | 1.87 | > 100 µM | 2.65 | 12.9 µM | 1.06 | 2.45 µM | 1.2 | 4.21 µM | 3.95 | > 100 µM | 1.85 | 7.31 | 1.65 | 6.55 µM | 2.9 | 26.8 µM | 2.54 | 7.96 µM | 4.17 | > 100 µM |
| Nc1cc(N)c2nc(-c3ccccc3)c(Nc3ccc(F)cc3)nc2c1 | 17.4 | 33.8 µM | 12 | 28.3 µM | 14.4 | 33 µM | 16.1 | 31.7 µM | 13.6 | 39.2 µM | 23.8 | 57.5 | 13.4 | 48.8 µM | 16.6 | > 100 µM | 15.3 | 29 µM | 40.7 | > 100 µM |
| O=C(CNC(=O)c1cccc2ccccc12)Nc1ccccc1Oc1cccc(O)c1 | 5.11 | > 25 µM | 9.47 | > 25 µM | 1.86 | > 25 µM | 1.62 | > 25 µM | 3.12 | > 25 µM | 7.94 | > 25 | > 25 | > 25 µM | 9.96 | > 25 µM | > 25 | > 25 µM | 13 | > 25 µM |
| O=c1cc/c(=N\Nc2ccccc2)c(=O)/c1=N/Nc1ccccc1 | > 50 | > 50 µM | > 50 | > 50 µM | > 50 | > 50 µM | > 50 | > 50 µM | > 50 | > 50 µM | > 50 | > 50 | > 50 | > 50 µM | > 50 | > 50 µM | > 50 | > 50 µM | > 50 | > 50 µM |
| Nc1nc(-n2cccn2)nc(-n2cccn2)c1Br | 9.7 | 92.6 µM | > 100 | > 100 µM | > 100 | > 100 µM | > 100 | > 100 µM | > 100 | > 100 µM | > 100 | > 100 | > 100 | > 100 µM | > 100 | > 100 µM | > 100 | > 100 µM | > 100 | > 100 µM |
| CCN(CC)c1ccc(/C=N/NC(=O)c2ccc(Nc3ccnc(C(F)(F)F)c3)cc2)c(O)c1 | 0.479 | 10.6 µM | 0.362 | > 46.9 µM | 0.412 | 1.71 µM | 0.229 | 0.898 µM | 0.404 | > 64.7 µM | 0.598 | 17.6 | 0.152 | > 100 µM | 0.158 |  | 0.412 | > 31 µM | 0.324 | 8.36 µM |
| O=C1C(NCCO)=C(N2CC2)C(=O)C(NCCO)=C1N1CC1 |  | > 100 µM |  | > 100 µM |  | > 85.5 µM |  | 99.5 µM |  | > 83.3 µM |  | > 100 |  | > 70.8 µM |  | > 100 µM |  | > 100 µM |  | > 88 µM |
| Clc1nc(Cl)c2ncn(C/C=C\Cn3cnc4c(Cl)nc(Cl)nc43)c2n1 | 1.51 | 3.23 µM | 1.54 | 2.89 µM | 2.92 | 10.5 µM | 2.04 | 4.19 µM | 1.41 | 2.99 µM | 2.46 | 8.01 | 1.79 | 3.26 µM | 1.17 | 2.94 µM | 2.56 | 12.1 µM | 7.03 | 20.3 µM |
| C[C@]12CC[C@H]3[C@@H](CC=C4C[C@@H](O)CC[C@@]43C)[C@@H]1C/C(=C\c1cccc(OCCN3CCOCC3)c1)[C@@H]2O | > 100 | > 100 µM | > 100 | > 100 µM | 4.98 | 23.3 µM | > 100 | > 100 µM | 28.3 | > 100 µM | 74.1 | > 100 | > 100 | > 100 µM | 46 | > 100 µM | 16.6 | 84.3 µM | > 100 | > 100 µM |
| COc1ccc(C2=NNC(c3ccc(-c4ccc(OC)cc4[N+](=O)[O-])o3)C2)cc1 (configuration not stated) | 31.6 | > 100 µM | 36.3 | > 100 µM | 72.7 | > 100 µM | 0.691 | 19.4 µM | 78.2 | > 100 µM | 17.9 | 59.9 | > 100 | > 100 µM | 59.9 | > 100 µM | 38.4 | > 100 µM | 49.7 | > 100 µM |
| C=C1C(=O)O[C@H]2[C@H]1CC/C(COC(=O)NCCc1ccc(OC)cc1)=C\CC[C@@]1(C)O[C@@H]21 | 4.52 | 18.1 µM | 1.92 | 5.16 µM | 6.23 | 19.1 µM | 1.25 | 3.05 µM | 2.51 | 6.97 µM | 10 | 32.6 | 3.41 | 13.6 µM | 2.61 | 7.32 µM | 2.49 | 6.85 µM | 23 | 65.8 µM |
| CCC(C)C1NC(=O)C(NC(=O)C(CC(C)C)N(C)C(=O)[C@@H]2CC(O)CN2)C(C)OC(=O)[C@H](Cc2ccc(OC)cc2)N(C)C(=O)[C@@H]2CCCN2C(=O)[C@H](CC(C)C)NC(=O)C(C)C(=O)[C@H](C(C)C)OC(=O)CC1O (some centres not stated) (H-[X9][ξNMeL][ξT][X4]LP[NMeY](Me); ester 3-C) | 0.283 | 0.628 µM and 2.45 µM | 0.0149 | 0.398 µM and 0.55 µM |  | 0.101 µM and 0.0147 µM |  | 0.0231 µM and 0.0117 µM |  | 0.287 µM and 0.294 µM | 4.46 | > 100 |  | 0.091 µM and 0.704 µM |  | 0.107 µM and 0.141 µM |  | 0.185 µM and 0.608 µM |  | 0.349 µM and 0.0464 µM |
